Source: PMC6327989 (Journal of Enzyme Inhibition and Medicinal Chemistry, 2019)

These compounds were tested against recombinant Sphingomyelinase D (SMase D) from L. laeta venom (Loxosceles laeta, UniProt Q8I914) (assay: biochemical).
Sequence of recombinant Sphingomyelinase D (SMase D) from L. laeta venom (Q8I914 27-311 limits assumed): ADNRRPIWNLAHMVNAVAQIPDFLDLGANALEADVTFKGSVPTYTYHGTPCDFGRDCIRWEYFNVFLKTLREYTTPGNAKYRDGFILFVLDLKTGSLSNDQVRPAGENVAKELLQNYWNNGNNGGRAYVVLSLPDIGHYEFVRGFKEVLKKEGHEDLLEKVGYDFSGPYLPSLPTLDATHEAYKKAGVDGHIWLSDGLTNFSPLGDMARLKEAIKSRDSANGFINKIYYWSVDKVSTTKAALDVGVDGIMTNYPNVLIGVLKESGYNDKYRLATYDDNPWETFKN
In the case of Cc1ccc(S(=O)(=O)Oc2cc(N)nc(SCc3ccc(C#N)cc3)n2)cc1 [compound 1, 6-amino-2-((4-cyanobenzyl)thio)pyrimidin-4-yl 4-methylbenzenesulphonate], the Ki is reported as 540 ± 130 nM. Cc1[nH]c2ccccc2c1/C=N/NS(=O)(=O)c1ccc(Br)cc1 [compound 5, 4-bromo-N-[(E)-(2-methyl-1H-indol-3-yl)methyleneamino]benzenesulfonamide] gave a Ki of 490 ± 100 nM. Cc1cc(OS(=O)(=O)c2ccc(Cl)cc2)cc2c1C(=O)/C(=C/c1cccnc1)O2 [compound 6, 4-methyl-3-oxo-2–(3-pyridylmethylene)benzo[3,4-b]furan-6-yl 4-chlorobenzenesulphonate] was tested, and the Ki was 590 ± 230 nM.
